# Reference: ChEMBL document CHEMBL1201862, “PubChem BioAssay data set” (2004)
# pIC50: −log10 of the molar value. Active and inactive are the calls of the source.
# How the values were obtained:
# [1] = target: Peroxisome proliferator-activated receptor gamma/Nuclear receptor coactivator 2 (Homo sapiens, UniProt P37231); test: TR-FRET dose response biochemical High Throughput Screening assay for agonists of the steroid receptor coactivator 2 (SRC-2) recruitment by the peroxisome proliferator-activated receptor gamma (PPAR gamma): non-selective agonists. [Related pubchem assays: 1297, 1032 ]; format: functional
# [2] = target: Photoreceptor-specific nuclear receptor (Homo sapiens, UniProt Q9Y5X4); format: functional;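 note: potency for compounds that break the NR2E3 corepressor complex and count as activators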
# [3] = target: Peroxisome proliferator-activated receptor gamma/Nuclear receptor coactivator 1 (Homo sapiens, UniProt P37231); test: TR-FRET dose response biochemical High Throughput Screening assay for agonists of the steroid receptor coactivator 1 (SRC-1) recruitment by the peroxisome proliferator-activated receptor gamma (PPAR gamma): non-selective agonists. [Related pubchem assays (depositor defined):AID1300, AID1808, AID504735, AID631]; format: protein assay
# [4] = target: Peroxisome proliferator-activated receptor gamma/Nuclear receptor coactivator 3 (Homo sapiens, UniProt P37231); test: TR-FRET dose response biochemical High Throughput Screening assay for agonists of the steroid receptor coactivator 3 (SRC-3) recruitment by the peroxisome proliferator-activated receptor gamma (PPAR gamma): non-selective agonists. [Related pubchem assays: 1301 (Confirmation screen.), 1048 (Primary screen.)]; format: functional
# [5] = target: Peroxisome proliferator-activated receptor gamma/Nuclear receptor corepressor 2 (Homo sapiens, UniProt P37231+Q9Y618); format: functional
# [6] = target: Eukaryotic translation initiation factor 4E (Mus musculus, UniProt P63073); test: blockers of eIF4G binding by eIF4E – biochemical, TR-FRET, dose response (AID 855); format: functional;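 note: potency for disrupting eIF4E binding to eIF4GI seen as loss of FRET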
# [7] = target: T1, Tyrosine-protein phosphatase non-receptor type 22 (Homo sapiens, UniProt Q9Y2R2); format: functional
# T1 sequence (Q9Y2R2 whole entry): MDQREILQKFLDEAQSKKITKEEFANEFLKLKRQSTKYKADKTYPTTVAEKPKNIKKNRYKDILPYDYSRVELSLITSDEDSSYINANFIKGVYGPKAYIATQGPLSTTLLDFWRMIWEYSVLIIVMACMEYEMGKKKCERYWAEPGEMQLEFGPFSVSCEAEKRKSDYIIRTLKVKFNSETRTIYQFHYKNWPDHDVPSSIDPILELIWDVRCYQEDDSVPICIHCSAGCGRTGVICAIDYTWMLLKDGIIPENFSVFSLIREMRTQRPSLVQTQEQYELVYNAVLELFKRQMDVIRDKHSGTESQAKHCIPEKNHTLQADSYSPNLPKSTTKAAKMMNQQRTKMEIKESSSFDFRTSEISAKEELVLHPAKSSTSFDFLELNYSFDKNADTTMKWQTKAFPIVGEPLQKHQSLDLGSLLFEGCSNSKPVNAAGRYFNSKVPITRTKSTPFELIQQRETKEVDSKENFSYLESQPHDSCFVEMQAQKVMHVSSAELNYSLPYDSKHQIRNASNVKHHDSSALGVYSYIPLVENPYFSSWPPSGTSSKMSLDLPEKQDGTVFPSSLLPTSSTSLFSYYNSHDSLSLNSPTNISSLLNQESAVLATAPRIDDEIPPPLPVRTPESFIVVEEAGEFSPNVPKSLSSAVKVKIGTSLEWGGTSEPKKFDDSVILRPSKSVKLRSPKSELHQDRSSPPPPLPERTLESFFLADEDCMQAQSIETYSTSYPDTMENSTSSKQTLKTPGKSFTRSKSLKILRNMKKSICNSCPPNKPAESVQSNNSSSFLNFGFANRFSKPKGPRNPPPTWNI
# [8] = target: T1, Tyrosine-protein phosphatase non-receptor type 22; format: functional; remark: listed apart in the source
# [9] = target: T2, Tyrosine-protein phosphatase non-receptor type 7 (Homo sapiens, UniProt P35236); format: functional
# T2 sequence (P35236 whole entry): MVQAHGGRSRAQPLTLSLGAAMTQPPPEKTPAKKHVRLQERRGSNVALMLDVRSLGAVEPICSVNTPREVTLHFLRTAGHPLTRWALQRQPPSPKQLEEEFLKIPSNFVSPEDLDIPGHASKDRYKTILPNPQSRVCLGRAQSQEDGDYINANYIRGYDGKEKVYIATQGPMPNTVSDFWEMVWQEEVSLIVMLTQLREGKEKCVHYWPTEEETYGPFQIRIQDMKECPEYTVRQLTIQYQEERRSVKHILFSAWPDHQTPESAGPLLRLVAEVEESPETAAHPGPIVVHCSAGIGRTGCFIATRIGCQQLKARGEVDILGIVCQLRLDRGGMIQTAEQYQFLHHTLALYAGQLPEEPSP
# [10] = target: T3, Alkaline phosphatase, tissue-nonspecific isozyme (Homo sapiens, UniProt P05186)
# T3 sequence (P05186 whole entry): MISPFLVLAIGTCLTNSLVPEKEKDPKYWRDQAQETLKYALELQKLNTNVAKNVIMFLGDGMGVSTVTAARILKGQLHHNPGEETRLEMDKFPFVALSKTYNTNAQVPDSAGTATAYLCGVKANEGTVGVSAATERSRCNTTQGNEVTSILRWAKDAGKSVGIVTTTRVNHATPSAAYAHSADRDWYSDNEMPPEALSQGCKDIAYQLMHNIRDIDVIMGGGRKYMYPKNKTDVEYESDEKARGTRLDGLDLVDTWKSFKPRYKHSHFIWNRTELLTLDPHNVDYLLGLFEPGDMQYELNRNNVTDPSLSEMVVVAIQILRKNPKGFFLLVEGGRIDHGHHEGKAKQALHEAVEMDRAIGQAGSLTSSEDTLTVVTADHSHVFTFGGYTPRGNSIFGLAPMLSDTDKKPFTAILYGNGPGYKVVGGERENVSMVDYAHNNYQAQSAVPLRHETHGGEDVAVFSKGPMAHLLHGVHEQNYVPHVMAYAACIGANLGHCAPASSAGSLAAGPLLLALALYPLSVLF
# [11] = target: T4, Kappa-type opioid receptor (Homo sapiens, UniProt P41145); format: functional
# [12] = Trypanosoma cruzi growth suppression in host cells – NIH3T3 host cells, beta-gal luminescence, confirmation (AID 2044); format: functional, cell-based;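 note: intracellular parasites grown in NIH/3T3 mouse fibroblasts as host cells; luminescent beta-galactosidase reporter signal from transgenic T. cruzi replicating inside host cells; inhibitors lower the luminescence signal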
# [13] = NIH3T3 cell viability loss – ATP luminescence, mouse fibroblasts, counter-screen, dose response (AID 2010); format: functional, cell-based;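 note: cells exposed to compound for about 90 hours before reading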
# [14] = target: Beta-galactosidase (Escherichia coli, UniProt Q8VNN2); format: functional
# [15] = target: T4, Kappa-type opioid receptor; format: functional; remark: listed apart in the source
# [16] = target: T3, Alkaline phosphatase, tissue-nonspecific isozyme; test: TNAP enzyme inhibition by screening hits, dose response, selectivity assay for mouse IAP inhibitor project, biochemical, human TNAP, uHTS hits (AID 488906); format: functional
# [17] = target: Intestinal-type alkaline phosphatase (Mus musculus, UniProt P24822); test: PubChem AID 488785; format: functional
# [18] = target: Intestinal-type alkaline phosphatase (Homo sapiens, UniProt P09923); test: inhibition of human intestinal alkaline phosphatase – biochemical, dose response (AID 488876); format: functional
# [19] = target: T5, Streptokinase A (Streptococcus pyogenes serotype M1, UniProt P10520); test: viability-normalized secreted streptokinase activity reduction – plasminogen activation absorbance, OD405, dose response (AID 1914); format: functional, Streptococcus pyogenes M1 GAS;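 note: secreted streptokinase activity via plasminogen activation per viability signal from cell pellet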
# T5 sequence (P10520 whole entry): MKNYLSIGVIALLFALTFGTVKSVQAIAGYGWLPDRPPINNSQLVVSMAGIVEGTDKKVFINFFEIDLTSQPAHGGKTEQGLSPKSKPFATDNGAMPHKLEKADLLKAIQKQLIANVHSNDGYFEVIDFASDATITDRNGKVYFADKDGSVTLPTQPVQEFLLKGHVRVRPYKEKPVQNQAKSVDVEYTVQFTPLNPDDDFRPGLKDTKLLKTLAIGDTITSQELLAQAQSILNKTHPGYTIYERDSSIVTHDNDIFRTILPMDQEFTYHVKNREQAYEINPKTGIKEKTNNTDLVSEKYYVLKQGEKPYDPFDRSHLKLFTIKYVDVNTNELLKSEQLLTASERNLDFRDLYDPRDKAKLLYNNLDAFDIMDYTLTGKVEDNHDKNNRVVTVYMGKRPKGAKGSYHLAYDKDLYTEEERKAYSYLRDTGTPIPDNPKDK
# [20] = target: SUMO-activating enzyme (Homo sapiens, UniProt Q9UBT2); test: blockers of UBC9-mediated SUMO conjugation – biochemical, AlphaScreen, SUMOylation inhibitor project, confirmation (AID 2018); format: functional
# [21] = target: Matrix metalloproteinase-14 (Homo sapiens, UniProt P50281); test: Dose Response confirmation of uHTS hits for a small molecule inhibitors of MT1-MMP activation in a fluorescence assay set 1.; format: functional
# [22] = viability loss in HeLa cells – cytotoxicity control for MgcRacGAP inhibitor project, dose response (AID 624300); format: functional
# [23] = target: Nonstructural protein 1 (Influenza A virus, UniProt Q194T2); format: functional, Influenza A virus (A/California/07/2009(H1N1))
# [24] = target: Mitogen-activated protein kinase 10 (Homo sapiens, UniProt P53779); test: Dose response biochemical screening assay for inhibitors of c-Jun N-Terminal Kinase 3 (JNK3). [Related pubchem assays: 746 ]
# [25] = target: T6, Mannose-6-phosphate isomerase (Homo sapiens, UniProt P34949); test: phosphomannose isomerase inhibition – biochemical, fluorescence intensity, confirmation (AID 1535)
# T6 sequence (P34949 whole entry): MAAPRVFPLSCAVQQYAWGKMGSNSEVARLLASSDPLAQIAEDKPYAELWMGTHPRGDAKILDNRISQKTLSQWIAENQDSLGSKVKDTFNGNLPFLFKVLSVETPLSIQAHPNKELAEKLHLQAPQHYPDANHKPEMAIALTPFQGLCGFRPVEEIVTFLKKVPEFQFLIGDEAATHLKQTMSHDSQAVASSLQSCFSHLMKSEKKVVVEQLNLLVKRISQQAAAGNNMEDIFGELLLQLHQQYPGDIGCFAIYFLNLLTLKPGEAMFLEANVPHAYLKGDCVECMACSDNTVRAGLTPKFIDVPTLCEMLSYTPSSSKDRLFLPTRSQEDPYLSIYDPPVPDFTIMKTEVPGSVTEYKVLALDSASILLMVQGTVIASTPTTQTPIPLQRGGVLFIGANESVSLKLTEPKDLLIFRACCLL
# [26] = target: Phosphomannomutase 2 (Homo sapiens, UniProt O15305); test: Counter screen SAR assay for PMM2 inhibitors via a fluorescence intensity assay. [Related pubchem assays (depositor defined):AID1545, AID1574]
# [27] = target: Cytochrome P450 2D6 (Homo sapiens, UniProt P10635);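 note: CYP2D6 member of a cytochrome P450 panel assay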
# [28] = test system: INS1; test: INS-1E survival protection against cytokine death – cell-based, luminescence, retest, dose response (AID 449756); format: functional; details: Rattus norvegicus;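 note: cell death triggered by IL-1 beta plus TNF-alpha plus IFN-gamma mixture; protective hits raise ATP signal compared with cytokine alone wells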
# [29] = target: T6, Mannose-6-phosphate isomerase; test: MPI inhibition at elevated mannose 6-phosphate – biochemical, fluorescence intensity, high mannose 6-phosphate, primary screen (AID 1220)
# [30] = target: Induced myeloid leukemia cell differentiation protein Mcl-1 (Homo sapiens, UniProt Q07820); format: functional
# T4 sequence (P41145 whole entry): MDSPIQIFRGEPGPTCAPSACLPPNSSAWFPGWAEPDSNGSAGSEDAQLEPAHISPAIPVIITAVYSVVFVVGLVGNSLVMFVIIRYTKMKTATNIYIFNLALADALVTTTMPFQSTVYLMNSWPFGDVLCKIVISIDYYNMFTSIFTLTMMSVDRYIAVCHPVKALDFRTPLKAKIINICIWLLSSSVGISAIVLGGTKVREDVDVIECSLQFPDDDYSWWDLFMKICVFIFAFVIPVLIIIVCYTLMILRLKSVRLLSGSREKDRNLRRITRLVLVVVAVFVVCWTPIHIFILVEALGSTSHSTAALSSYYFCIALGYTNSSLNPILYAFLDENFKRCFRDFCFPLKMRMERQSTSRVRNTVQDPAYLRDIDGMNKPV
# Peroxisome proliferator-activated receptor gamma/Nuclear receptor coactivator 2, sequence (P37231 whole entry): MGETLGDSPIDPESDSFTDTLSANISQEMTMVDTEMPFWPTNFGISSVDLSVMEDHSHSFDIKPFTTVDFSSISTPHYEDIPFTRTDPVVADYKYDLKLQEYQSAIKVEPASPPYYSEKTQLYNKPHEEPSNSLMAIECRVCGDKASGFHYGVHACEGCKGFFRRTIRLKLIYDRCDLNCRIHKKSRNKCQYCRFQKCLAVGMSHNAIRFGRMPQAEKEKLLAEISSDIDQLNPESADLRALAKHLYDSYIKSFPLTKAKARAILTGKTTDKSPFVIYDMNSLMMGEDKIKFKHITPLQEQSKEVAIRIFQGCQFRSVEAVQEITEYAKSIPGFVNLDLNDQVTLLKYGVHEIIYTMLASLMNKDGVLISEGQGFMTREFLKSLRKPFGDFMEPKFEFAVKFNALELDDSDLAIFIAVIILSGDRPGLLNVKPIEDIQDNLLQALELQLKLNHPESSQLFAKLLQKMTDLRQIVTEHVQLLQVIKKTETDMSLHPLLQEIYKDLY
# Peroxisome proliferator-activated receptor gamma/Nuclear receptor coactivator 2, sequence (Q15596 whole entry, further chain): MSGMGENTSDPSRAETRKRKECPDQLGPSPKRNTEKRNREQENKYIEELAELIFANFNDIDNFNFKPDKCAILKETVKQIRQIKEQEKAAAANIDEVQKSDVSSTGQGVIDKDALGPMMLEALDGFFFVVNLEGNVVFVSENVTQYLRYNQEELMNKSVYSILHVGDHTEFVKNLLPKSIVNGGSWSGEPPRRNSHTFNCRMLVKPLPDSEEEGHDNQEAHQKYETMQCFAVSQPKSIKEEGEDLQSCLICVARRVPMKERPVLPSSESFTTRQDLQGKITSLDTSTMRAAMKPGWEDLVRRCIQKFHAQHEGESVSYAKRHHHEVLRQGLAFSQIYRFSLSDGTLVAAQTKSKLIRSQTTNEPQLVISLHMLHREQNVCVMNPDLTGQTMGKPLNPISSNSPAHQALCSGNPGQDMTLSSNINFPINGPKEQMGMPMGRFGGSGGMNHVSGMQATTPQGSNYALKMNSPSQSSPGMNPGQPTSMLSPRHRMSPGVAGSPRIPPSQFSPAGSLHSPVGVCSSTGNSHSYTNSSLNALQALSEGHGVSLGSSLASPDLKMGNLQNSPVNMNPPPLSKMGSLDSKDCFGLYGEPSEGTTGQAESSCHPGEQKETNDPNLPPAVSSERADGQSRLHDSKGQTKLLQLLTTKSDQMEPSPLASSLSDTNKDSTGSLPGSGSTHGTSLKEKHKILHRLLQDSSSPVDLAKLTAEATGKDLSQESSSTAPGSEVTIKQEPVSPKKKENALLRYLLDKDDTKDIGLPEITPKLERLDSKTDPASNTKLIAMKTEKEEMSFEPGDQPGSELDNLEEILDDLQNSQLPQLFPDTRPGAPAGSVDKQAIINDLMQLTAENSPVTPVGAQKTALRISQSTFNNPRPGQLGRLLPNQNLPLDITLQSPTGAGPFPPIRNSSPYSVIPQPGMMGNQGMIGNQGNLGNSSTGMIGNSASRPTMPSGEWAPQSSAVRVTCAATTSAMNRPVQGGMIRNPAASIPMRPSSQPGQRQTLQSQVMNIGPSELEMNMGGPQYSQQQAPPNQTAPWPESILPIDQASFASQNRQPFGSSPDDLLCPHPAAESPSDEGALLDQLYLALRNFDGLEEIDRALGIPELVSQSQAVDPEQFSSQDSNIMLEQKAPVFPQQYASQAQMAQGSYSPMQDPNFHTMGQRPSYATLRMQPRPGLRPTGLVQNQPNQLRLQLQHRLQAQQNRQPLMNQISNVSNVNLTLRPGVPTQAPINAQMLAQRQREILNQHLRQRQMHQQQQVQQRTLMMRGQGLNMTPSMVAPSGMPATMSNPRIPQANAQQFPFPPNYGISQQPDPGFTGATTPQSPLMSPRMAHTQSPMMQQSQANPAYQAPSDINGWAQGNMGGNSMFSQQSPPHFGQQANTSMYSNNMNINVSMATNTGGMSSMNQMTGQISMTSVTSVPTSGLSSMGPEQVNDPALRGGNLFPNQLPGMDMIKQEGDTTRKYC
# Peroxisome proliferator-activated receptor gamma/Nuclear receptor coactivator 1, sequence (P37231 whole entry): as the sequence (P37231 whole entry) above
# Peroxisome proliferator-activated receptor gamma/Nuclear receptor coactivator 1, sequence (Q15788 whole entry, further chain): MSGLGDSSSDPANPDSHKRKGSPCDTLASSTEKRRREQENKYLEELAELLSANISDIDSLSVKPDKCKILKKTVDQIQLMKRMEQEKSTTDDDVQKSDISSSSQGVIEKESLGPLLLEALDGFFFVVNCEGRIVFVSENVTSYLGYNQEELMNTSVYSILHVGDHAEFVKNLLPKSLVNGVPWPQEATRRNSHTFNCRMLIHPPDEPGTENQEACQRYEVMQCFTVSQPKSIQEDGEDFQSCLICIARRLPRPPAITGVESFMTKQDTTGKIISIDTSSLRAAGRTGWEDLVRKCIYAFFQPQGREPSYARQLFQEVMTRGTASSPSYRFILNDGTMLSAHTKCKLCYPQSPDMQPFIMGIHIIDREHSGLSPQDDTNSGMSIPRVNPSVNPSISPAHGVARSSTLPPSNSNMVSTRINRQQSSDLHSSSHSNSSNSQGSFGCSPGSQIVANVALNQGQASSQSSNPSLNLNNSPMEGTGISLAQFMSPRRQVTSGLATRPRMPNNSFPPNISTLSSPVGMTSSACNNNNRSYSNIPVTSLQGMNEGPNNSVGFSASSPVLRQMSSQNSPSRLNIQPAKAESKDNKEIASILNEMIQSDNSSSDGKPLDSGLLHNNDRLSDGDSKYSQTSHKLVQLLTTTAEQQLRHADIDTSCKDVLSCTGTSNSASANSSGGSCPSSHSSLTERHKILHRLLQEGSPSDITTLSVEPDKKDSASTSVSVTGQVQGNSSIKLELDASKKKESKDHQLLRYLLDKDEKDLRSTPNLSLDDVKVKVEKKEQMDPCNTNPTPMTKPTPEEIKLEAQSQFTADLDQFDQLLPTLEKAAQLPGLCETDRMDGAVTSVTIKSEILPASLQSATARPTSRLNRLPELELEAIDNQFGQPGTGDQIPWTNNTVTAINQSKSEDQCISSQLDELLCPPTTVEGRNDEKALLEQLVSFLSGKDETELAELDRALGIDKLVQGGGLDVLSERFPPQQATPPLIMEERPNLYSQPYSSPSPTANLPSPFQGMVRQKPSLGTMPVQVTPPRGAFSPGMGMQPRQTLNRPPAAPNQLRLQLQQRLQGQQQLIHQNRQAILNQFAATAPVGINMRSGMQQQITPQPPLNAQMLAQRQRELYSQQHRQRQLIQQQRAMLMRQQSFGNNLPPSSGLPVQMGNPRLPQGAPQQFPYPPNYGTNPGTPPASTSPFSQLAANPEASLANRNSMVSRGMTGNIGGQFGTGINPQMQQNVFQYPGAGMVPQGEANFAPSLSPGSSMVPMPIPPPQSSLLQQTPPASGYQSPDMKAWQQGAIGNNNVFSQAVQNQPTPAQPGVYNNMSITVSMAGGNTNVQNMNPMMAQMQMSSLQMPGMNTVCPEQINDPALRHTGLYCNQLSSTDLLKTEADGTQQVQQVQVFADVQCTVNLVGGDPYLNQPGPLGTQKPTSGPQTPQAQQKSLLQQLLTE
# Intestinal-type alkaline phosphatase (Homo sapiens, UniProt P09923), sequence (P09923 whole entry): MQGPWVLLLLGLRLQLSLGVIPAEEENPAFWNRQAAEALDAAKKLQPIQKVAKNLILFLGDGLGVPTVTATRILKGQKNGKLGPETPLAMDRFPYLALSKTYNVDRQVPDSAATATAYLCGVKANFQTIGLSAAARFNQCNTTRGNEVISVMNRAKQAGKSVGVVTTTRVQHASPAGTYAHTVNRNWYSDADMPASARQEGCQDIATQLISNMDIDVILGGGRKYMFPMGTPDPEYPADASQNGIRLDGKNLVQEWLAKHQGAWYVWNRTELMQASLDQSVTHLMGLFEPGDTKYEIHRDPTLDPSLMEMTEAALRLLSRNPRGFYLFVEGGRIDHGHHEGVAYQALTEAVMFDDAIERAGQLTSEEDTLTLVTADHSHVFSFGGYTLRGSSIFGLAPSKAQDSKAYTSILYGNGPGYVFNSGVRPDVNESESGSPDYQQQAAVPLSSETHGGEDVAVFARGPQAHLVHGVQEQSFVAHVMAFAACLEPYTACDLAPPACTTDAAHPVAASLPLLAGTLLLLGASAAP
# Eukaryotic translation initiation factor 4E, sequence (P63073 whole entry): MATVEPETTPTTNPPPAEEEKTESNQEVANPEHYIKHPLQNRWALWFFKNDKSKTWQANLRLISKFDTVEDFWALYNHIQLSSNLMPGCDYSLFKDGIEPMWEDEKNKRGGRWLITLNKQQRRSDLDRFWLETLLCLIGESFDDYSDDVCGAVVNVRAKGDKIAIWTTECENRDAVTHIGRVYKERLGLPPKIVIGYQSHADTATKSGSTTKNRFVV
structure (smiles),measurement,setting,value
O=c1oc2cc(O)c(Cl)cc2c2ccccc12,EC50,[1],3.81 µM (active)
same,IC50,[2],> 39.8 µM (not active)
same,EC50,[3],> 79.4 µM (inactive)
same,EC50,[4],> 79.4 µM (not active)
same,IC50,[5],1.39 µM (active)
O=C(CCN1C(=O)C2C3C=CC(C3)C2C1=O)Nc1ccccn1 (stereo not drawn),IC50,[6],> 64 µM (inactive)
CC(=O)NS(=O)(=O)c1ccc(NC(=O)C2C3C=CC(C3)C2C(=O)O)cc1 (stereo not drawn),IC50,[7],> 79.4 µM (inactive)
same,IC50,[8],> 79.4 µM (inactive)
same,IC50,[9],> 79.4 µM (inactive)
COc1ccc(CNC(=O)c2cc(-c3ccccc3O)[nH]n2)cc1,EC50,[10],> 100 µM (not active)
same,IC50,[7],> 79.4 µM (inactive)
same,IC50,[8],> 79.4 µM (inactive)
same,IC50,[9],> 79.4 µM (inactive)
Cc1ccccc1NC(=O)c1ccc(Nc2c([N+](=O)[O-])cc([N+](=O)[O-])c3ccccc23)cc1,pIC50,[11],< 4.49
same,EC50,[12],0.937 µM (active)
same,EC50,[13],> 60 µM (inconclusive)
same,EC50,[14],11.3 µM (active)
same,IC50,[15],9.63 µM (active)
FC(F)Sc1ccc(NC(=S)NC(c2ccccc2)c2ccccc2)cc1,IC50,[16],41.1 µM (active)
same,IC50,[17],0.998 µM (active)
same,IC50,[18],> 100 µM (inactive)
same,EC50,[19],> 150 µM (not active)
O=C(Nc1cccc2nsnc12)c1ccc(-c2ccc(Br)cc2)o1,IC50,[20],9.92 µM (active)
CC1=NN(c2ccccc2)C(=O)/C1=C/C=C/c1ccc(N(C)C)cc1,pIC50,[11],< 4.49
same,IC50,[21],> 80 µM (inactive)
same,CC50,[22],95.1 µM (active)
same,EC50,[14],7.93 µM (active)
same,IC50,[15],8.28 µM (active)
same,IC50,[23],3.14 µM (active)
CCOc1ccc(C(=O)C2=C(O)C(=O)N(c3cc(C)on3)C2c2ccccc2OC)cc1 (stereo not drawn),EC50,[1],> 26.5 µM (not active)
same,EC50,[3],> 79.4 µM (inactive)
same,EC50,[4],> 79.4 µM (not active)
same,IC50,[24],> 93.1 µM (not active)
CCc1nnc(/N=c2\ssnc2Cl)s1,IC50,[25],13.1 µM (active)
same,IC50,[26],> 100 µM (inactive)
COc1cccc(CNC(=O)CCNS(=O)(=O)c2ccc3[nH]c(=O)oc3c2)c1,IC50,[16],63.2 µM (active)
same,IC50,[17],13.9 µM (active)
same,IC50,[18],> 100 µM (inactive)
Cc1ccc(N2C(=O)c3[nH]nc(C)c3C2c2ccccn2)cc1 (stereo not drawn),AC50,[27],inconclusive
CCN1c2ccccc2N(C)C1(C)c1ccccc1 (stereo not drawn),AC50,[28],2.14 µM (active)
same,IC50,[29],13.7 µM (active)
same,IC50,[6],49.4 µM (inactive)
same,IC50,[30],9.19 µM (active)
